Where “and” joins values, the source holds several entries; their conditions need not be identical. Identical values can stand only once. Entries after “also recorded” stand apart in the source; their conditions may differ.
How the values were obtained:
[1] = test system: human dermal fibroblast cell line, CRL2071; assay: Production of collagen type I (ELISA); assay type: cell-based
Description: (§1) Cells from the human dermal fibroblast cell line, CRL2071 (passages 12-14), obtained from normal breast skin of a person, were allowed to attach for 6-8 hours before the addition of the test compounds. After 72 h of exposure to the test articles the media was removed, cells counted and the cell-associated fraction extracted. The media and cell-associated fraction were analysed for the concentration of collagen type I using a Chondrex Human type I Collagen Detection Kit ELISA (Cat #6021).
After complete dissolution the solutions were sterile filtered through a […] syringe filter and kept at 4° C. until use. Prior to each experiment dilutions were freshly prepared by diluting to 100 nM, 1 μM or 10 μM in cell-specific media.
(§2) The test compounds, positive controls and no treatment media were added to the flasks (2.5 ml/flask) and cells were incubated for 72 h before removal of the supernatant. After removal of the supernatant, cell monolayers were trypsinsed with 2.5 ml of 0.025% trypsin/[…] in PBS to each flask. After cell detachment (7-10 min), 1 ml of the cell/trypsin mixture was added to a 20 ml counting vial containing 9 ml of normal saline. The cells were quantitated with a Coulter Counter Z2.
(§3) In some treatments cells were found floating. They were collected, counted and subjected to viability testing using 1% trypan blue staining. The remaining 1.5 ml of trypsin/cell mixture was sonicated with a Branson tip-probed sonicator for 1 min, setting 6 before centrifugation at 10,000 rpm for 10 min. The supernatant was removed and used in the collagen ELISA for the quantitation of cell-associated collagen.

[2] = test system: bacterial collagenase type II from Clostridium histolyticum; assay: Colorimetric gelatinolytic assay, collagenase inhibition; assay type: biochemical; details: 10 μM
Description: A colorimetric gelatinolytic assay was used to evaluate the effects of heparanase inhibitors on the activity of bacterial collagenase type II from Clostridium histolyticum. The reaction mixture was prepared in a total volume of 20 μl for each well of the microplate/inhibition assay. First, 1 ul of 100 ng of bacterial collagenase and 2 μl of the heparanase inhibitor or positive control (50 μg/ml doxycycline) were added into each well of a 96-well plate and incubated at 37° C. for 60 min. On completion of the incubation, 10 μg of gelatin and 2 μl of 10× collagenase buffer (500 mM Tris-HCl, 100 mM CaCl2, and 1.5 M NaCl) were added to distilled water to obtain the final volume of 20 μl. The plate was then incubated at 37° C. for 4 h. Subsequently, the amount of gelatin remaining was quantified by the addition of 20 μl of 2.5% w/v of Coomassie Brilliant blue R-250 (Sigma-Aldrich) dissolved in 40% methanol/10% acetic acid, followed by shaking on an orbital shaker for 5 min. The supernatant was carefully removed by pipette to ensure that the gelatin pellet was not disturbed and 50 μl of dimethyl sulfoxide was added to dissolve the pellet. The plate was incubated at room temperature for 15 min followed by shaking on an orbital shaker for 5 min. The plate was then read in a Versa max microplate reader at 600 nm.

[3] = biological target: T1, Recombinant human heparanase (Homo sapiens, UniProt Q9Y251); assay: Heparanase inhibition colorimetric assay (fondaparinux / WST-1); assay type: biochemical; details: FIGS. 1 to 3; inhibitor 1 μM, 10 μM and dose response
T1 construct: made in house; host or cells: insect cells
T1 sequence (Q9Y251 158-543 limits assumed): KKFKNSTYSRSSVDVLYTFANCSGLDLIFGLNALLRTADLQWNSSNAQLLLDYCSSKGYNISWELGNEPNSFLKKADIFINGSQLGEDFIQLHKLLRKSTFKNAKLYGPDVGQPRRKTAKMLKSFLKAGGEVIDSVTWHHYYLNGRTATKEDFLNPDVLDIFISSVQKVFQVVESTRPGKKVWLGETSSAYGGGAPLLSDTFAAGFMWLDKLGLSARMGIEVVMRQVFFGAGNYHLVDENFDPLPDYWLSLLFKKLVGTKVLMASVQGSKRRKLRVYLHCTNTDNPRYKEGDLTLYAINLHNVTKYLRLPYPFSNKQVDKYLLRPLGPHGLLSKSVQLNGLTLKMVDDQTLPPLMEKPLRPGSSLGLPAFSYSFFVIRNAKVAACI
T1 sequence (Q9Y251 36-109 limits assumed): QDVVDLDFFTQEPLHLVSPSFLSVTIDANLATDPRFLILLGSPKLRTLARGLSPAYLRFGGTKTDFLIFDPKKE
Description: The assay methodology used is described in Hammond, E., et al., Development of a colorimetric assay for heparanase activity suitable for kinetic analysis and inhibitor screening, Anal. Biochem. 2010, 396 (1), 112-116.
Reagents were obtained from Sigma-Aldrich. Assays were carried out in 96-well microplates (Costar 9018 EIA/RIA, Corning) that had been pretreated with a solution of 4% bovine serum albumin (BSA) in phosphate-buffered saline containing 0.05% Tween 20 (PBST) for 2 h at 37° C. The plates were then washed three times with PBST and shaken dry. Pretreated plates were stored at 4° C. for up to 2 weeks before use.
Recombinant human heparanase was expressed in insect cells and then purified from the cell medium into which it had been secreted. […] Fractions containing pure heparanase, determined by silver staining of sodium dodecyl sulfate-polyacrylamide gel electrophoresis (SDS-PAGE), were pooled, dialyzed into 10 mM sodium phosphate (pH 7.0), concentrated using Centriplus concentrating devices (Millipore), and stored at −80° C. until use.
Assay solutions (100 μl) were composed of 40 mM sodium acetate buffer (pH 5.0) and […] fondaparinux (GlaxoSmithKline) with or without inhibitor. […] The plates were resealed with adhesive tape and developed at 60° C. for 60 min, and the absorbance was measured at 584 nm (FLUOstar, BMG Labtech).

[4] = test system: human dermal fibroblast cell line, CRL2071; assay: Production of hyaluronan (ELISA); assay type: cell-based; details: liberated, 10 μM, 72 h
Description: as §1, with “hyaluronan” for “collagen type I”, “Hyaluronan” for “Chondrex Human type I Collagen”, “ELISA.” for “ELISA (Cat #6021).”
as §2
as §3, with “hyaluronan” for “collagen”, “hyaluronan.” for “collagen.”

O=C(CCOCC(COCCC(=O)NCCCCCCOC1OC(COS(=O)(=O)[O-])C(OS(=O)(=O)[O-])C(OS(=O)(=O)[O-])C1OS(=O)(=O)[O-])(COCCC(=O)NCCCCCCOC1OC(COS(=O)(=O)[O-])C(OS(=O)(=O)[O-])C(OS(=O)(=O)[O-])C1OS(=O)(=O)[O-])COCCC(=O)NCCCCCCOC1OC(COS(=O)(=O)[O-])C(OS(=O)(=O)[O-])C(OS(=O)(=O)[O-])C1OS(=O)(=O)[O-])NCCCCCCOC1OC(COS(=O)(=O)[O-])C(OS(=O)(=O)[O-])C(OS(=O)(=O)[O-])C1OS(=O)(=O)[O-].[Na+].[Na+].[Na+].[Na+].[Na+].[Na+].[Na+].[Na+].[Na+].[Na+].[Na+].[Na+].[Na+].[Na+].[Na+].[Na+] (stereo not shown) [Compound 17b]
Collagen as % of No Treatment Control (Mean ± SD), Cell-associated [1]: 1,155 ± 25% and 2,371 ± 49% and 2,371% | Collagenase inhibition as a % of the "No Treatment" control (Mean ± SD) [2]: 74 ± 2% | inhibition of heparanase (in words) [3]: particularly good inhibitors; also recorded: very good inhibition of heparanase | Hyaluronan as % of No Treatment Control (Mean ± SD) [4]: 167 ± 36p = 0.233%
